Laboratory results published in ChEMBL document CHEMBL1201862, “PubChem BioAssay data set” (2004).
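Following 48 hours of exposure in 96-well plates, responses at five concentrations were used to interpolate endpoints linearly. GI50 marks 50% less growth.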 Active and inactive are the calls of the source. Cut-off read from the data, not from the text of the source: active = GI50 up to about 1.1 µM and inactive = higher.

What was measured:
Test in all cases: growth of human tumour cells (NCI), 48 h
786-0 = tested on: 786-0
A498 = tested on: A498
COLO 205 = tested on: COLO 205
DU-145 = tested on: DU-145
HCT-15 = tested on: HCT-15
HOP-62 = tested on: HOP-62
HOP-92 = tested on: HOP-92
K562 = tested on: K562
MCF7 = tested on: MCF7
NCI-H226 = tested on: NCI-H226
OVCAR-4 = tested on: OVCAR-4
RXF 393 = tested on: RXF 393
SK-OV-3 = tested on: SK-OV-3
SNB-19 = tested on: SNB-19
SW-620 = tested on: SW-620
UACC-257 = tested on: UACC-257
UO-31 = tested on: UO-31
CCRF-CEM = tested on: CCRF-CEM
MOLT-4 = tested on: MOLT-4
SF-295 = tested on: SF-295

C=C1c2nc3ccccc3n2C=C(c2ccc(Cl)cc2)N1c1ccc(OCCN2CCOCC2)cc1
GI50 (786-0): 25.2 µM (inactive) | GI50 (A498): > 100 µM (inactive) | GI50 (COLO 205): 18.9 µM (inactive) | GI50 (DU-145): 49.8 µM (inactive) | GI50 (HCT-15): 12.7 µM | GI50 (HOP-62): 52.6 µM (inactive) | GI50 (HOP-92): 50.8 µM (inactive) | GI50 (K562): 9.82 µM (inactive) | GI50 (MCF7): 10.7 µM (inactive) | GI50 (NCI-H226): > 100 µM (inactive) | GI50 (OVCAR-4): 12.1 µM (inactive) | GI50 (RXF 393): 32.7 µM (inactive) | GI50 (SK-OV-3): > 100 µM (inactive) | GI50 (SNB-19): > 100 µM (inactive) | GI50 (SW-620): 22 µM (inactive) | GI50 (UACC-257): 22.7 µM (inactive) | GI50 (UO-31): 33.4 µM (inactive)

O=C1CC(C(=O)O)Cc2c(Br)ccc(O)c21 (centres undefined)
GI50 (786-0): > 100 µM (inactive) | GI50 (CCRF-CEM): > 100 µM (inactive) | GI50 (COLO 205): > 100 µM (inactive) | GI50 (DU-145): > 100 µM (inactive) | GI50 (HCT-15): > 100 µM | GI50 (HOP-62): > 100 µM (inactive) | GI50 (HOP-92): 29 µM (inactive) | GI50 (K562): > 100 µM (inactive) | GI50 (MCF7): > 100 µM (inactive) | GI50 (MOLT-4): > 100 µM (inactive) | GI50 (NCI-H226): 95.9 µM (inactive) | GI50 (OVCAR-4): > 100 µM (inactive) | GI50 (RXF 393): > 100 µM (inactive) | GI50 (SF-295): > 100 µM (inactive) | GI50 (SK-OV-3): > 100 µM (inactive) | GI50 (SNB-19): > 100 µM (inactive) | GI50 (UACC-257): > 100 µM (inactive) | GI50 (UO-31): > 100 µM (inactive)

O=C(COc1ccc(OCC(=O)N2C(=O)CN(c3ccc(Cl)cc3)C2=S)cc1)N1C(=O)CN(c2ccc(Cl)cc2)C1=S
GI50 (786-0): 22.9 µM (inactive) | GI50 (A498): 22.1 µM (inactive) | GI50 (COLO 205): 25.6 µM (inactive) | GI50 (DU-145): 43.2 µM (inactive) | GI50 (HCT-15): 29.9 µM | GI50 (HOP-92): 21.8 µM (inactive) | GI50 (K562): 29.3 µM (inactive) | GI50 (MCF7): 34 µM (inactive) | GI50 (MOLT-4): 33.7 µM (inactive) | GI50 (NCI-H226): 23.9 µM (inactive) | GI50 (OVCAR-4): 25.9 µM (inactive) | GI50 (RXF 393): 22.8 µM (inactive) | GI50 (SF-295): 29 µM (inactive) | GI50 (SK-OV-3): 26.9 µM (inactive) | GI50 (SNB-19): 24.4 µM (inactive) | GI50 (SW-620): 31.3 µM (inactive) | GI50 (UACC-257): 27.8 µM (inactive) | GI50 (UO-31): 29 µM (inactive)

COc1nc(C#CC2CCCCC2)nc(OC)n1
GI50 (786-0): 1.69 µM (inactive) | GI50 (A498): 21.4 µM (inactive) | GI50 (CCRF-CEM): 1.12 µM (inactive) | GI50 (COLO 205): 6.1 µM (inactive) | GI50 (DU-145): 3.92 µM (inactive) | GI50 (HCT-15): 1.38 µM | GI50 (HOP-62): 3.72 µM (inactive) | GI50 (K562): 3.92 µM (inactive) | GI50 (MCF7): 2.14 µM (inactive) | GI50 (MOLT-4): 2.98 µM (inactive) | GI50 (OVCAR-4): 5.42 µM (inactive) | GI50 (RXF 393): 4.91 µM (inactive) | GI50 (SF-295): 5.24 µM (inactive) | GI50 (SK-OV-3): 13.1 µM (inactive) | GI50 (SNB-19): 16.6 µM (inactive) | GI50 (SW-620): 3.3 µM (inactive) | GI50 (UACC-257): 11 µM (inactive) | GI50 (UO-31): 2.54 µM (inactive)

COc1ccc(/C(Cl)=C(\C=O)c2ccc([N+](=O)[O-])cc2)cc1OC
GI50 (786-0): 4.29 µM (inactive) | GI50 (A498): 20.5 µM (inactive) | GI50 (CCRF-CEM): 2.44 µM (inactive) | GI50 (COLO 205): 14.2 µM (inactive) | GI50 (DU-145): 19.2 µM (inactive) | GI50 (HCT-15): 5 µM | GI50 (HOP-62): 22.7 µM (inactive) | GI50 (HOP-92): 7.28 µM (inactive) | GI50 (K562): 3.62 µM (inactive) | GI50 (MCF7): 3.72 µM (inactive) | GI50 (MOLT-4): 3.05 µM (inactive) | GI50 (NCI-H226): 11.4 µM (inactive) | GI50 (RXF 393): 3.76 µM (inactive) | GI50 (SF-295): 13.4 µM (inactive) | GI50 (SK-OV-3): 26.7 µM (inactive) | GI50 (SNB-19): > 46.5 µM (inactive) | GI50 (SW-620): 6.12 µM (inactive) | GI50 (UACC-257): 11.5 µM (inactive) | GI50 (UO-31): 12.2 µM (inactive)

Cc1cc(O)c2c3c(ccc2c1)C(=O)c1c(O)cccc1C3=O [TETRANGULOL]
GI50 (786-0): 7.46 µM (inactive) | GI50 (A498): > 100 µM (inactive) | GI50 (CCRF-CEM): 30.1 µM (inactive) | GI50 (COLO 205): 3.25 µM (inactive) | GI50 (DU-145): 4.56 µM (inactive) | GI50 (HCT-15): 1.92 µM | GI50 (HOP-62): 16.3 µM (inactive) | GI50 (HOP-92): > 100 µM (inactive) | GI50 (K562): 18.6 µM (inactive) | GI50 (MCF7): 3.3 µM (inactive) | GI50 (MOLT-4): 5.48 µM (inactive) | GI50 (OVCAR-4): 4.57 µM (inactive) | GI50 (RXF 393): > 100 µM (inactive) | GI50 (SF-295): 17.4 µM (inactive) | GI50 (SK-OV-3): > 83.2 µM (inactive) | GI50 (SNB-19): 19.9 µM (inactive) | GI50 (UACC-257): 2.28 µM (inactive) | GI50 (UO-31): > 100 µM (inactive)

[O-][n+]1onc2c1/C(=N/O)CCC2
GI50 (786-0): > 100 µM (inactive) | GI50 (A498): > 100 µM (inactive) | GI50 (CCRF-CEM): > 100 µM (inactive) | GI50 (COLO 205): > 100 µM (inactive) | GI50 (DU-145): > 100 µM (inactive) | GI50 (HCT-15): > 100 µM | GI50 (HOP-62): > 100 µM (inactive) | GI50 (K562): > 100 µM (inactive) | GI50 (MCF7): > 100 µM (inactive) | GI50 (MOLT-4): > 100 µM (inactive) | GI50 (NCI-H226): > 100 µM (inactive) | GI50 (OVCAR-4): > 100 µM (inactive) | GI50 (RXF 393): > 100 µM (inactive) | GI50 (SF-295): > 100 µM (inactive) | GI50 (SK-OV-3): > 100 µM (inactive) | GI50 (SNB-19): > 100 µM (inactive) | GI50 (SW-620): > 100 µM (inactive) | GI50 (UACC-257): > 100 µM (inactive) | GI50 (UO-31): > 100 µM (inactive)

Cc1nnc(CC#N)n1NC(=O)CC#N
GI50 (786-0): > 100 µM (inactive) | GI50 (A498): > 100 µM (inactive) | GI50 (CCRF-CEM): > 100 µM (inactive) | GI50 (COLO 205): > 100 µM (inactive) | GI50 (DU-145): > 100 µM (inactive) | GI50 (HCT-15): > 100 µM | GI50 (HOP-62): > 100 µM (inactive) | GI50 (HOP-92): > 100 µM (inactive) | GI50 (K562): > 100 µM (inactive) | GI50 (MCF7): > 100 µM (inactive) | GI50 (MOLT-4): > 100 µM (inactive) | GI50 (RXF 393): > 100 µM (inactive) | GI50 (SF-295): > 100 µM (inactive) | GI50 (SK-OV-3): > 100 µM (inactive) | GI50 (SNB-19): > 100 µM (inactive) | GI50 (SW-620): > 100 µM (inactive) | GI50 (UACC-257): > 100 µM (inactive) | GI50 (UO-31): > 100 µM (inactive)

O=C1CS(=O)(=O)C(c2cccc(Oc3ccccc3)c2)N1C1CC1 (centres undefined)
GI50 (786-0): 37.2 µM (inactive) | GI50 (CCRF-CEM): 60.1 µM (inactive) | GI50 (COLO 205): 25.2 µM (inactive) | GI50 (DU-145): 63.2 µM (inactive) | GI50 (HCT-15): 30.3 µM | GI50 (HOP-92): 23.4 µM (inactive) | GI50 (K562): 50.9 µM (inactive) | GI50 (MCF7): 22.8 µM (inactive) | GI50 (MOLT-4): 30.4 µM (inactive) | GI50 (NCI-H226): 26.9 µM (inactive) | GI50 (OVCAR-4): 29.2 µM (inactive) | GI50 (RXF 393): 22 µM (inactive) | GI50 (SF-295): 36.6 µM (inactive) | GI50 (SK-OV-3): 33.3 µM (inactive) | GI50 (SNB-19): 50.1 µM (inactive) | GI50 (SW-620): 60.5 µM (inactive) | GI50 (UACC-257): 33.2 µM (inactive) | GI50 (UO-31): 27.6 µM (inactive)

COCOc1cc(OC)ccc1C/C=N/O
GI50 (786-0): > 100 µM (inactive) | GI50 (CCRF-CEM): > 100 µM (inactive) | GI50 (COLO 205): > 100 µM (inactive) | GI50 (DU-145): > 100 µM (inactive) | GI50 (HCT-15): > 100 µM | GI50 (HOP-62): > 100 µM (inactive) | GI50 (HOP-92): > 100 µM (inactive) | GI50 (K562): > 100 µM (inactive) | GI50 (MCF7): > 100 µM (inactive) | GI50 (MOLT-4): > 100 µM (inactive) | GI50 (NCI-H226): > 100 µM (inactive) | GI50 (OVCAR-4): > 100 µM (inactive) | GI50 (RXF 393): > 100 µM (inactive) | GI50 (SF-295): > 100 µM (inactive) | GI50 (SK-OV-3): > 100 µM (inactive) | GI50 (SNB-19): > 100 µM (inactive) | GI50 (SW-620): > 100 µM (inactive) | GI50 (UACC-257): > 100 µM (inactive) | GI50 (UO-31): > 100 µM (inactive)

C#CC(=O)OCC#CCOC(=O)C#C
GI50 (786-0): 15 µM (inactive) | GI50 (A498): > 100 µM (inactive) | GI50 (CCRF-CEM): 15.9 µM (inactive) | GI50 (COLO 205): 17.9 µM (inactive) | GI50 (DU-145): 26.8 µM (inactive) | GI50 (HCT-15): 18.7 µM | GI50 (HOP-62): 21.6 µM (inactive) | GI50 (HOP-92): 16.9 µM (inactive) | GI50 (MCF7): 20.9 µM (inactive) | GI50 (NCI-H226): 19 µM (inactive) | GI50 (RXF 393): 19.1 µM (inactive) | GI50 (SF-295): > 100 µM (inactive) | GI50 (SK-OV-3): > 100 µM (inactive) | GI50 (SNB-19): > 100 µM (inactive) | GI50 (SW-620): 20 µM (inactive) | GI50 (UACC-257): > 100 µM (inactive) | GI50 (UO-31): 9.14 µM (inactive)
